Measured values taken from patent US20260286316A1, “METHOD OF PRODUCTION OF MODIFIED PHAGE AND METHOD OF TREATMENT USING SAME” (priority 2022, published 2026).
Where two headings read alike, the source gives them in different places.

Tests used:
[1] = test system: S. aureus ATCC51650 and CIs (CI2, CI3, CI4, CI6, CI7, CI8, CI9, and CI11); assay type: cell-based, Staphylococcus aureus
Method: (§1) Initial screening was performed in 100 μl in 96 well plates, with follow up experiments in 10 mL culture volume. S. aureus strains were grown on 1.5% Tryptone Soya Agar (TSA) at 37° C. overnight. Single colonies were transferred to Tryptone Soya Broth (TSB) to generate a culture with a starting concentration of 5×10^5 CFU/ml. […] Antibiotics were added to the cultures at ½ MIC (according to the pretest MIC of antibiotics) if required. Optical density (OD) readings at 600 nm were recorded at 24 hours to assess the growth of bacteria co-inoculated with phage unless otherwise specified. Uninoculated, fresh media was included as a sterility control.
A synergistic effect was defined as a statistically significant decrease in optical density (OD) that was larger than the combined decrease in OD of antibiotic and phage only controls.

[2] = test system: S. aureus isolates (15 clinical isolates and 2 ATCC strains); experiment: Antibiotic sensitivity testing, 17 isolates; assay type: cell-based, Staphylococcus aureus; settings: of 17 S. aureus isolates
Method: S. aureus ATCC51650 and ATCC25923 were obtained from the American Type Culture Collection (Manassas, VA, United States of America) and used as reference strains. In addition, a total of 15 S. aureus clinical isolates (CIs) were isolated from the sinonasal cavities of chronic sinusitis (CRS) patients. In each case, S. aureus was cultured by an independent diagnostic laboratory and the antibiotic susceptibility determined by disc diffusion on Mueller-Hinton agar per Clinical and Laboratory Standards Institute (CLSI) recommendations (Adelaide Pathology Partners, Mile End, SA, Australia). Bacteria were isolated on Columbian horse blood agar plates, colistin nalidixic acid plates, or cystine lactose electrolyte-deficient plates (Oxoid Australia Pty Ltd, Thebarton, SA, Australia). Positive cultures were confirmed to be S. aureus using latex agglutination testing.
(§2) The minimum inhibitory concentration (MIC) of amoxicillin, vancomycin, erythromycin, clindamycin and azithromycin against the S. aureus strains was assessed using the broth microdilution technique as previously described (Wiegand I et al., Nature protocols 3 (2): 163-175, 2008) and breakpoints defined according to CSLI guidelines. Clinical strains resistant to at least one antibiotic in three or more antibiotic categories were defined as multidrug resistant (MDR).

S. aureus CI3 [3] = experiment: Phage combined with ½ MIC antibiotics on planktonic S. aureus (OD600), CI3; assay type: cell-based, Staphylococcus aureus; settings: ½ MIC antibiotic, phage MOI=0.2, 24 hours
Method: as §1

S. aureus CI3 [4] = experiment: Rat rhinosinusitis model, efficacy arm (sinus mucosa CFU, biofilm biomass, histopathology); assay type: in vivo, Sprague Dawley rats
From the text: Rat nasal tissues were fixed in 10% neutral buffered formalin. Tissue samples were then decalcified using 9.5% nitric acid in 1% ethylenediaminetetracetic acid (EDTA), processed to paraffin wax, and 6 μm sections cut and stained with H&E. The samples were examined by a veterinary pathologist blinded to the treatments given.
An established murine rhinosinusitis model was used with modifications (see YU C-j et al., Chinese Journal of Otorhinolaryngology-Skull Base Surgery 6, 2011; Zhang F et al., Am J Rhinol Allergy 27 (5): 361-366, 2013; and Jin M et al., Ear Arch Oto-Rhino-L 268 (6): 857-861, 2011). […] The sponges were placed at approximately 15 mm from the anterior nostril, located in the ostiomeatal complex. The rats were monitored for a nine-day period to allow for mucosal biofilms to form, and, on the tenth day, the sponges were removed. A two-day recovery was given to the rat before treatments begun. […] Treatments were administered intranasally twice a day for 14 days. Rats were monitored for weight and respiratory alterations (respiration rate; nasal discharge, hyperaemia or pruritus; and sneezing) during treatment, and, 14 days post-treatment initiation, the rats were humanely sacrificed. Their sinus mucosa was harvested for CFU counting, biofilm quantification, histopathology, and phage enumeration. […]
The quantification of biofilm biomass on sinus mucosa was determined using an established protocol (Singhal D et al., editors. Quantitative analysis of in vivo mucosal bacterial biofilms. International Forum of Allergy & Rhinology; 2012: Wiley Online Library (27). Briefly, the frontal sinus mucosa was harvested and placed into Dulbecco's Modified Eagle's Medium (Life Technologies, Carlsbad, CA, United States of America) on ice. One piece of mucosa from each frontal sinus was stained with a LIVE/DEAD® BacLight Bacterial Viability Kit (Life Technologies Australia). The stained mucosa was then examined at 20× magnification using a confocal laser scanning microscope (Zeiss LSM700, Carl Zeiss AG, Oberkochen, Germany). […]

S. aureus CI3 [5] = experiment: Antibiotic sensitivity of the isolate selected for in vivo experiments; assay type: cell-based, Staphylococcus aureus
Method: as §2
A fresh culture of CI3 on 1.5% TSA plates was prepared two days before inoculation. A single colony was resuspended in 0.9% saline (ca. 2 ml) to turbidity reading 0.5 McFarland Units and then a 1 in 100 dilution in TSB was cultured overnight one day before the in vivo experiment. CI3 pellets were harvested and resuspended in fresh TSB to reach 2.5×10^9 Colony Forming Units (CFU)/ml.

## CC1(C)S[C@@H]2[C@H](NC(=O)[C@H](N)c3ccc(O)cc3)C(=O)N2[C@H]1C(=O)O [amoxicillin]
[1]; ½ MIC antibiotic with J-Sa36, Sa83 or Sa87 (MOI=0.2)
  additive or synergistic effect of the antibiotic combined with phage: None of the combinations of phage with either of the cell wall actives (amoxicillin and vancomycin) showed any significant additive or synergistic effects

## CC[C@H]1OC(=O)[C@H](C)[C@@H](O[C@H]2C[C@@](C)(OC)[C@@H](O)[C@H](C)O2)[C@H](C)[C@@H](O[C@@H]2O[C@H](C)C[C@H](N(C)C)[C@H]2O)[C@](C)(O)C[C@@H](C)CN(C)[C@H](C)[C@@H](O)[C@]1(C)O [azithromycin]
[2]
  isolates exhibiting resistance to the antibiotic: two
S. aureus CI3 [3]
  synergistic effects with phage J-Sa36, Sa83 and Sa87 on bacterial viability (OD600): synergistic effects
S. aureus CI3 [4]; 0.5×10^10 PFU/ml Sa87 or ½ MIC antibiotic alone
  biofilm biomass on sinus mucosa compared to control, single agent: significant increase in biomass
S. aureus CI3 [4]; Sa87, ½ MIC clindamycin or ½ MIC azithromycin only
  histopathology of the maxilloturbinates, single agent: evidence of cilial denudation and surface epithelial erosion
S. aureus CI3 [5]
  antibiotic sensitivity of the isolate: sensitive

## CN[C@H](CC(C)C)C(=O)N[C@H]1C(=O)N[C@@H](CC(N)=O)C(=O)N[C@H]2C(=O)N[C@H]3C(=O)N[C@H](C(=O)N[C@H](C(=O)O)c4cc(O)cc(O)c4-c4cc3ccc4O)[C@H](O)c3ccc(c(Cl)c3)Oc3cc2cc(c3O[C@@H]2O[C@H](CO)[C@@H](O)[C@H](O)[C@H]2O[C@H]2C[C@](C)(N)[C@H](O)[C@H](C)O2)Oc2ccc(cc2Cl)[C@H]1O [vancomycin]
[1]
  additive or synergistic effect of the antibiotic combined with phage: None of the combinations of phage with either of the cell wall actives (amoxicillin and vancomycin) showed any significant additive or synergistic effects

## CC[C@H]1OC(=O)[C@H](C)[C@@H](O[C@H]2C[C@@](C)(OC)[C@@H](O)[C@H](C)O2)[C@H](C)[C@@H](O[C@@H]2O[C@H](C)C[C@H](N(C)C)[C@H]2O)[C@](C)(O)C[C@@H](C)C(=O)[C@H](C)[C@@H](O)[C@]1(C)O [erythromycin]
[2]
  isolates exhibiting resistance to the antibiotic: three
S. aureus CI3 [3]
  synergistic effects with phage J-Sa36, Sa83 and Sa87 on bacterial viability (OD600): synergistic effects
